Source: patent publication US20230073855A1, “SOFT GEL CAPSULE COMPRISING A SELECTIVE ESTROGEN RECEPTOR MODULATOR” (PHARMATHEN S.A., priority 2018, published 2023)
In brackets after ≈: the same amount, converted by molar mass.

Columns and labels:
[1] = physchem; conditions: thermodynamic from solid
Experimental: The solubility is calculated by the API quantity dissolved in 5 mL of each excipient.

[2] = cited from earlier work
[3] = physchem; conditions: oil or lipid, thermodynamic from solid, Dubcare GPE 810 ®/(Tween 80 ®/PEG 600)
Experimental: (§1) In order to investigate drug solubility in SMEDDS, excess amount of drug was added to few mL of each excipient, placed in small bottles and the mixture was vortexed, in room temperature to facilitate solubilization.
The solubility of Dubcare GPR 810® in different oil/(S/CS) was tested. […] The S/CS ration was kept constant at 1/1.

[4] = physchem; conditions: thermodynamic from solid; remark: listed apart in the source
Experimental: as §1
Tween 80® and Tween 20® were used as surfactants, Transcutol® along with PG 200 and PEG 600 were used as co-surfactants.

**Q.** With `OCCOc1ccc(/C(=C(/CCCl)c2ccccc2)c2ccccc2)cc1` [Ospemifene] as the molecule, how does the solubility ([1]; Castor oil #1 (neat excipient), oil or lipid, in Castor oil #1, room temperature) read?
**A.** 60 mg/mL (≈ 158 mM)

**Q.** And the solubility ([1]; Castor oil #2 (neat excipient), oil or lipid, in Castor oil #2, room temperature)?
**A.** 60 mg/mL (≈ 158 mM)

**Q.** What about the solubility ([1]; Dubcare GPE 810 (neat excipient), organic solvent or mixture, in Dubcare GPE 810 ®, room temperature) of the same molecule?
**A.** 180 mg/mL (≈ 475 mM)

**Q.** What about the solubility ([1]; Ethyl Oleate (neat excipient), oil or lipid, in Ethyl Oleate, room temperature) of the same molecule?
**A.** 20 mg/mL (≈ 52.8 mM)

**Q.** And the solubility ([1]; Isopropyl myristate (neat excipient), oil or lipid, in Isopropyl myristate, room temperature)?
**A.** 150 mg/mL (≈ 396 mM)

**Q.** And the solubility ([1]; Labrafac Lipophile (neat excipient), oil or lipid, in Labrafac Lipophile ®, room temperature)?
**A.** 100 mg/mL (≈ 264 mM)

**Q.** And the solubility ([1]; Miglyol 812 (neat excipient), oil or lipid, in Miglyol 812, room temperature)?
**A.** 60 mg/mL (≈ 158 mM)

**Q.** What about the solubility ([1]; Oleic acid (neat excipient), oil or lipid, in Oleic acid, room temperature) of the same molecule?
**A.** 10 mg/mL (≈ 26.4 mM)

**Q.** And the solubility ([1]; Propylene glycol (neat excipient), organic solvent or mixture, in Propylene glycol, room temperature)?
**A.** 50 mg/mL (≈ 132 mM)

**Q.** What about the solubility ([1]; Sesame oil (neat excipient), oil or lipid, in Sesame oil, room temperature) of the same molecule?
**A.** 60 mg/mL (≈ 158 mM)

**Q.** And the solubility ([1]; Transcutol (neat excipient), organic solvent or mixture, in Transcutol ®, room temperature)?
**A.** 280 mg/mL (≈ 739 mM)

**Q.** What about the solubility ([1]; Tween 20 (neat excipient), organic solvent or mixture, in Tween 20 ®, room temperature) of the same molecule?
**A.** 150 mg/mL (≈ 396 mM)

**Q.** What about the solubility ([1]; Tween 80 (neat excipient), organic solvent or mixture, in Tween 80 ®, room temperature) of the same molecule?
**A.** 100 mg/mL (≈ 264 mM)

**Q.** What about the solubility ([1]; Tyloxapol (neat excipient), organic solvent or mixture, in Tyloxapol, room temperature) of the same molecule?
**A.** 140 mg/mL (≈ 369 mM)

**Q.** And the solubility ([1]; organic solvent or mixture, in Kolliphpor ® RH40, room temperature)?
**A.** 180 mg/mL (≈ 475 mM)

**Q.** What about the solubility ([1]; organic solvent or mixture, in PG 200, room temperature) of the same molecule?
**A.** 100 mg/mL (≈ 264 mM)

**Q.** And the solubility ([1]; organic solvent or mixture, in PG 600, room temperature)?
**A.** 160 mg/mL (≈ 422 mM)

**Q.** What about the “Time to peak median serum concentration” value ([2]; fasting postmenopausal women) of the same molecule?
**A.** approximately two

**Q.** And the “Increase of bioavailability with food intake” value ([2]; with food intake, EP1713458)?
**A.** two- to three

**Q.** And the solubility ([3]; ratio oil/(S/CS) 1:9, S/CS 1/1)?
**A.** 160 mg/mL

**Q.** And the solubility ([3]; ratio oil/(S/CS) 2:8, S/CS 1/1)?
**A.** 150 mg/mL

**Q.** And the solubility ([3]; ratio oil/(S/CS) 3:7, S/CS 1/1)?
**A.** 150 mg/mL

**Q.** And the solubility ([3]; ratio oil/(S/CS) 7:3, S/CS 1/1)?
**A.** 80 mg/mL

**Q.** What about the solubility ([3]; ratio oil/(S/CS) 8:2, S/CS 1/1) of the same molecule?
**A.** 60 mg/mL

**Q.** And the solubility ([4]; organic solvent or mixture, Tween 20 ®/Transcutol ®, ratio S/CS 1:1)?
**A.** 210 mg/mL

**Q.** And the solubility ([4]; organic solvent or mixture, Tween 20 ®/Transcutol ®, ratio S/CS 1:2)?
**A.** 240 mg/mL

**Q.** And the solubility ([4]; organic solvent or mixture, Tween 20 ®/Transcutol ®, ratio S/CS 2:1)?
**A.** 190 mg/mL

**Q.** And the solubility ([4]; surfactant/co-surfactant mixture Tween 20/PG 200, S/CS 1:1, organic solvent or mixture, Tween 20 ®/PG 200, ratio S/CS 1:1)?
**A.** 110 mg/mL

**Q.** And the solubility ([4]; surfactant/co-surfactant mixture Tween 20/PG 200, S/CS 1:2, organic solvent or mixture, Tween 20 ®/PG 200, ratio S/CS 1:2)?
**A.** 120 mg/mL

**Q.** And the solubility ([4]; surfactant/co-surfactant mixture Tween 20/PG 200, S/CS 2:1, organic solvent or mixture, Tween 20 ®/PG 200, ratio S/CS 2:1)?
**A.** 120 mg/mL

**Q.** What about the solubility ([4]; surfactant/co-surfactant mixture Tween 20/PG 600, S/CS 1:1, organic solvent or mixture, Tween 20 ®/PG 600, ratio S/CS 1:1) of the same molecule?
**A.** 140 mg/mL

**Q.** What about the solubility ([4]; surfactant/co-surfactant mixture Tween 20/PG 600, S/CS 1:2, organic solvent or mixture, Tween 20 ®/PG 600, ratio S/CS 1:2) of the same molecule?
**A.** 140 mg/mL

**Q.** And the solubility ([4]; surfactant/co-surfactant mixture Tween 20/PG 600, S/CS 2:1, organic solvent or mixture, Tween 20 ®/PG 600, ratio S/CS 2:1)?
**A.** 140 mg/mL

**Q.** And the solubility ([4]; surfactant/co-surfactant mixture Tween 80/PEG 600, S/CS 1:1, organic solvent or mixture, Tween 80 ®/PEG 600, ratio S/CS 1:1)?
**A.** 140 mg/mL

**Q.** What about the solubility ([4]; surfactant/co-surfactant mixture Tween 80/PEG 600, S/CS 1:2, organic solvent or mixture, Tween 80 ®/PEG 600, ratio S/CS 1:2) of the same molecule?
**A.** 120 mg/mL

**Q.** And the solubility ([4]; surfactant/co-surfactant mixture Tween 80/PEG 600, S/CS 2:1, organic solvent or mixture, Tween 80 ®/PEG 600, ratio S/CS 2:1)?
**A.** 140 mg/mL
